For six compounds, ED50 and inhibition results are on record in EP0794185A1, “BICYCLIC THIAZOLE COMPOUND” (MEIJI SEIKA KABUSHIKI KAISHA, priority 1994, dated 1996).

Each structure is given as a SMILES string.

Usually ED50 stands for the dose at which the effect has come halfway, by size or by number of responders. A high value points to weaker potency. By inhibition is commonly meant the change of the read-out against control, counted positive when it falls.

One series has as its system catalepsy. Description: Cataleptogenic effect (extrapyramidal effect, catalepsy provoking activity) in mice. To be noted: male, ddY, mouse, in vivo, ip, catalepsy observed after 20, 30 and 40 minutes. The procedure:
The extrapyramidal effect of the compounds according to the present invention was assayed by an index the catalepsy provoking activity as a representative pharmacological evaluation method of the extrapyramidal effect. Male ddY mice having a body weight of 25 - 35 g which were divided into groups each consisting of 3 - 6 animals were subjected to the test. The compound of the present invention was administered intraperitoneally to observe catalepsy after 20, 30 and 40 minutes, respectively. Catalepsy was judged as positive in such cases that a mouse whose front paw was compulsorily hung up on an iron bar having a diameter of 1 mm and horizontally laid at a height of 3 cm remained in such a strained posture for more than 30 seconds. […]

The subject of series [1] is hyperlocomotion induced by methamphetamine in mice. Description: Anti-methamphetamine effect: inhibition of hyperlocomotion induced by methamphetamine in mice. The format is in vivo, Male ddY mice. To be noted: Mus musculus, 0.25 h, ip, 15 min after methamphetamine 2 mg/kg sc, locomotion measured for thirty minutes. The procedure: The antipsychotic activity of the compound according to the present invention was assayed by an index the inhibitory activity on the stimulation of hyperlocomotion induced by methamphetamine in mice. Male ddY mice having a weight of 25 - 35 g were divided into groups each consisting of 3 - 6 animals. The mouse was subcutaneously administered with methamphetamine (2 mg/kg). Fifteen minutes after this administration, the compound of the present invention was intraperitoneally administered. After further fifteen minutes, the animal was then placed in a transparent acrylic box (30 cm x 30 cm x 30 cm) mounted on an apparatus to measure the locomotion for thirty minutes (MUROMACHI KIKAI, ANIMEX AUTO MK-110).

The target in another series is T1, dopamine-D2 receptor (Rattus norvegicus, UniProt P61169).
T1 construct: using a P2 fraction of a rat cerebral corpus striatum; from tissue; host or cells: rat cerebral corpus striatum, P2 membrane fraction
T1 sequence (P61169 whole entry): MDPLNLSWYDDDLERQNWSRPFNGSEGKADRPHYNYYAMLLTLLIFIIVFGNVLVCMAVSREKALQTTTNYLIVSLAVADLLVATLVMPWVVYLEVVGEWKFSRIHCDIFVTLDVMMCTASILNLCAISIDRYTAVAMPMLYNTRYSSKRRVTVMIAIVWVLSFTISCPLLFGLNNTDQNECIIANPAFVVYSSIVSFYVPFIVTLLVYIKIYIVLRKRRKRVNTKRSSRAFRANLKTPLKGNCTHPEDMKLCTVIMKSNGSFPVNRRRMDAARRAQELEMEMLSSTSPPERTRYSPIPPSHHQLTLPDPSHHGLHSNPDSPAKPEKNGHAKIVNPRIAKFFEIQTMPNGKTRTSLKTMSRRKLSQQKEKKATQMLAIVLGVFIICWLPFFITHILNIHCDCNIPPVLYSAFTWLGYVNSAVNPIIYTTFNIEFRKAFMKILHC
The series can be described thus: Binding to dopamine-D2 receptor, [3H]spiperone, P2 fraction of rat cerebral corpus striatum. To be noted: read-out: Inhibition at 10^-7 M (%).

A further series deals with T2, serotonin-5-HT2 receptor (Rattus norvegicus, UniProt P14842).
T2 construct: a 5-HT2 receptor of a rat cerebral cortex; from tissue; host or cells: rat cerebral cortex, P2 membrane fraction
T2 sequence (P14842 whole entry): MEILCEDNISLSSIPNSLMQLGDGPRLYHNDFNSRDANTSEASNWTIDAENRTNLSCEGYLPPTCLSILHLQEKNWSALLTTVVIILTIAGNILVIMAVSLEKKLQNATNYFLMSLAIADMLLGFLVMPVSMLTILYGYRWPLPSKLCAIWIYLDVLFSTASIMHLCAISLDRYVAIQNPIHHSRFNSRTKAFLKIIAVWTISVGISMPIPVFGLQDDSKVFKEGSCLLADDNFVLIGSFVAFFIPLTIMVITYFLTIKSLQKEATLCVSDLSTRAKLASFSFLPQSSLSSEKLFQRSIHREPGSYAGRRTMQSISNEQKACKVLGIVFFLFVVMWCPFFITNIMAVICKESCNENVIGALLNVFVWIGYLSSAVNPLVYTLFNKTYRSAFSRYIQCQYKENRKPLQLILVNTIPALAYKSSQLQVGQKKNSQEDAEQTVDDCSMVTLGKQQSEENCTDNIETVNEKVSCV
Description: Binding to serotonin-5-HT2 receptor, [3H]ketanserin, P2 fraction of rat cerebral cortex. To be noted: read-out: Inhibition at 10^-9 M (%).

Description for dopamine-D2 receptor: The affinity of the compound of the present invention for D2 receptors was studied using a P2 fraction of a rat cerebral corpus striatum. The rat cerebral corpus striatum was homogenized in 0.32 M sucrose in an amount of 10 times that of the rat cerebral corpus striatum, and the homogenate was centrifuged at 900 x g for 10 min. […] An incubation buffer (50 mM Tris, 120 mM NaCl, 5 mM KCl, 1 mM MgCl2, 1 mM CaCl2, pH 7.4) was added to the sediment, and the mixture was then centrifuged at 39,000 x g for 20 min. The sediment was obtained as a P2 fraction. The P2 fraction was incubated at 37°C for 30 min in a buffer containing 0.1 nM [^3H]spiperone and the compound of the present invention with various concentrations. The reaction solution was filtered through a Whatman GF/B glass filter, and the amount of bound [^3H]spiperone was measured by a liquid scintillation counter.
Description for serotonin-5-HT2 receptor: The affinity of the compound of the present invention for a 5-HT2 receptor of a rat cerebral cortex was assayed as follows. A P2 fraction was prepared in the same manner as described above in connection with the above (a). The P2 fraction was incubated at 37°C for 15 min in a 50 mM Tris/HCl buffer (pH 7.4) containing 1 nM [^3H]ketanserin and the compound of the present invention with various concentrations, and the amount of bound [^3H]ketanserin was then measured.

On to `Cc1cn2c(C)c(CCN3CCC(c4noc5cc(F)ccc45)CC3)sc2n1` [Example 11, 3,6-Dimethyl-2-[2-[4-(6-fluoro-1,2-benzisoxazol-3-yl)-1-piperidinyl]ethyl]imidazo[2,1-b]thiazole], for which the ED50 with catalepsy amounted to 3.3 mg/kg; in series [1], 0.12 mg/kg. For `Cc1cc(=O)n2c(C)c(CCN3CCC(c4noc5cc(F)ccc45)CC3)sc2n1` [Example 4, 3,7-Dimethyl-2-[2-[4-(6-fluoro-1,2-benzisoxazol-3-yl)-1-piperidinyl]ethyl]-5H-thiazolo[3,2-a]pyrimidin-5-one] the same measures were 1.2 mg/kg and 0.07 mg/kg. As for `Cc1cc(=O)n2c(C)c(CCN3CCC(c4csc5cc(F)ccc45)CC3)sc2n1` [Example 8, 3,7-Dimethyl-2-[2-[4-(6-fluoro-1-benzothiophen-3-yl)-1-piperidinyl]ethyl]-5H-thiazolo[3,2-a]pyrimidin-5-one], at dopamine-D2 receptor, the inhibition at 0.1 µM was determined as 95.2%. Take `CN(C)CCCN1c2ccccc2Sc2ccc(Cl)cc21` [Chlorpromazine, chlorpromazine, reference compound]: the ED50 was 6.2 mg/kg in the series with catalepsy and 1.1 mg/kg in series [1]. Consider `Cc1cc(=O)n2c(CCN3CCC(c4noc5cc(F)ccc45)CC3)csc2n1` [Example 20, 3-[2-[4-(6-Fluoro-1,2-benzisoxazol-3-yl)-1-piperidinyl]ethyl]-5H-7-methylthiazolo[3,2-a]pyrimidin-5-one], for which the inhibition at 0.001 µM on serotonin-5-HT2 receptor was determined as 66.3%. The 50% effect level in series [1] (ED50) was put at a dose of 0.04 mg/kg.

Take `O=C(CCCN1CCC(O)(c2ccc(Cl)cc2)CC1)c1ccc(F)cc1` [Haloperidol, haloperidol, reference compound]: the ED50 in the series with catalepsy stood at 1.3 mg/kg; in series [1] it was 0.2 mg/kg.
